Test results published in article PMC10989073, “Antineoplastic effect of compounds C14 and P8 on TNBC and radioresistant TNBC cells by stabilizing the K-Ras4B^G13D/PDE6δ complex” (Frontiers in Oncology, 2024).
Read-outs that look alike come from different tables or passages of the source.

How the values were obtained:
Format in all cases: cell-based, human
[1] = system: MCF-10A cells; experiment: Apoptosis/necrosis assay (Annexin V–propidium iodide, flow cytometry)
Procedure: (§1) Apoptosis and necrosis were determined using the Apoptosis/Necrosis Detection kit (Abcam, Cambridge, UK) according to the manufacturer’s instructions. In brief, approximately 500,000 cells were seeded in 6-well plates (Corning) for 24 h. […] Cells were harvested and collected by centrifugation. All the samples were analyzed in triplicate using flow cytometry equipment FACSCalibur instrument (BD Biosciences, San Jose, CA, USA) at […] and 575-nm emission. Data analysis was performed using the FlowJo software (Tree Star Inc., Ashland, OR, USA). All experiments were performed in triplicate.

[2] = system: MCF-10A cells; experiment: Clonogenic assay; conditions: 10 to 12 days, C14 and P8 at IC50-48, cisplatin 100 µM, doxorubicin 0.5 µM
Procedure: The principal aim of a clonogenic assay is to evaluate the effect of chemotherapy agents or new drugs by the measurement of their ability to arrest tumor cell division and their ability to develop new colonies after their exposure to these new drugs ([56]). Therefore, the colony formation ability of the cell lines MCF-10A, MDA-MB-231, and MDA-MB-231RR was evaluated after their exposure to the C14 and P8 compounds. In brief, breast cancer cell lines were cultured in 6-well plates (Corning), seeding 300 cells per well, and incubated at 37°C in 5% CO2 for 24 h. Compounds C14 and P8 were added at the maximum evaluated concentration IC50-48. As controls, cells without treatment and cells treated in the presence of a vehicle (DMSO at 0.66%) were employed (Sigma-Aldrich). […] After 10 days of treatment, cells were fixed with 4% PFA and stained with 0.1% crystal violet in citric acid (Sigma-Aldrich) for 15 minutes. Subsequently, the dye present in the cells was extracted using isopropanol and read at 570 nm in a Synergy-HTX microplate reader (BioTek). Each test was performed in triplicate. Data were expressed as % colonies relative to the untreated control ([56]).

[3] = system: MDA-MB-231 cells; experiment: XTT cell viability assay and IC50 determination; conditions: for IC50: XTT, ± SD; for concentration from which a significant cytotoxic effect is seen: compared to vehicle (DMSO)
Procedure: In order to evaluate the effect of the C14 and P8 compounds over MCF-10A, MCF-7, MDA-MB-231, and […] cell lines, the IC50 of those molecules was determined. In brief, all the cell lines were seeded at a density of 15,000 cells per well in a 96-well microtiter plate (Corning) in a corresponding growth medium for 24 h. Then, cells were treated with increasing concentrations (from 0 to 200 μM) of the C14 and P8 compounds (Enamine, Kyiv, Ukraine). As a positive control, increased concentrations of cisplatin (from 0 to 200 µM) (Accord, Mexico City, Mexico) were employed. Due to that, dimethyl sulfoxide (DMSO) was used as a vehicle, and its increased concentrations were evaluated as the negative control. All the samples were maintained under growth conditions for 24 h and 48 h. At the end of each time, cell viability was determined using the XTT Cell Proliferation Kit II (Roche Applied Science, Mannheim, Germany) following the manufacturer’s protocol. The absorbance was measured in a spectrophotometer Synergy-HTX (BioTek) at a wavelength of 450–500 nm with a reference wavelength of 650 nm. Cell proliferation was expressed as a percentage of viability [(absorbance of treated cells/absorbance of untreated cells × 100)] ± SD.

[4] = system: cyclin D1 and GSK3β in MCF-10A cells; experiment: Western blotting of cyclin D1 and GSK3β; conditions: 3 h, densitometry; for reduction in cyclin D1 protein: C14 and P8 at IC50-24 (Figure 7 legend); for reduction in GSK3β: IC50-24 (Figure 7 legend)
Procedure: To determine the effect of the C14 and P8 compounds over the protein effectors of K-Ras4B, AKT, and ERK, immunoblotting assays were conducted with specific antibodies. In brief, MCF-10A, MDA-MB-231, and MDA-MB-231RR cells were plated in 100-mm culture dishes until 80% of confluents. Cell adhesion was allowed for 24 h. […] After pre-treatment, cells were stimulated with 100 ng/ml EGF for 10 minutes to promote AKT and ERK activation. Later, the whole-cell extracts were obtained by the lysis of the cells (Cytoskeleton) in the presence of proteases and phosphatase inhibitors. Subsequently, the protein extracts were incubated at 4°C for 40 minutes to be clarified by centrifugation for 10 minutes at 14,000 rpm, at 4°C. The protein concentration of each extract was determined by using the Precision Red Advanced Protein Assay Reagent (Cytoskeleton) Then, approximately 25 μg of protein extract was electrophoresed in 10% sodium dodecyl sulfate–polyacrylamide gel electrophoresis (SDS-PAGE) and transferred to polyvinylidene fluoride (PVDF) membranes (Millipore, Billerica, MA, USA). Blots were probed using the following primary antibodies: Total ERK (Cell Signaling, Danvers, MA, USA), pERK (Cell Signaling), Total AKT (Cell Signaling), pAKT (Cell Signaling), GSK3β (Cell Signaling), and cyclin D1 (Abcam) at a 1:1,000 dilution. As a control, an anti-GAPDH antibody (GeneTex, Irvine, CA, USA) was employed at a 1:100,000 dilution and γ-Tubulin (Invitrogen) 1:5,000. Densitometric analysis of blots was performed using the software ImageJ version 1.45 (National Institutes of Health, Bethesda, […], USA).

[5] = Apoptosis/necrosis assay (Annexin V–propidium iodide, flow cytometry); conditions: human, MCF-10A cells, 24 h at IC50-24, flow cytometry
Procedure: as §1

[6] = system: Ras-GTP in MDA-MB-231 cells; experiment: Ras activation pull-down assay (Raf-RBD); conditions: MDA-MB-231, 3 h pre-treatment at IC50-48H, EGF 100 ng/ml 10 min
Procedure: (§2) Subsequently, the cells were stimulated with epidermal growth factor (EGF) (100 ng/ml) for 10 minutes. Lysates (1 mg/ml) were exposed to Ras GTP-binding protein (Raf-RBD), following the manufacturer’s instructions. Experiments for each cell type and condition were repeated three times.

[7] = system: Ras-GTP in MDA-MB-231RR cells; experiment: Ras activation pull-down assay (Raf-RBD); conditions: 3 h pre-treatment at IC50-48H, EGF 100 ng/ml 10 min
Procedure: as §2

N.N.[Cl][Pt][Cl] [Cisplatin, cisplatin, reference compound]
apoptosis cells ([1]; 24 h, cisplatin 100 µM, doxorubicin 0.5 µM): over 70%
reduction of colony growth [2]: 95%

O=C(CN1CCN(c2cccc(Cl)c2)CC1)N[C@@H]1CCOc2ccccc21 [P8, 2-[4-(3-chlorophenyl)piperazin-1-yl]-N-[(4R)-chroman-4-yl]acetamide]
IC50 ([3]; Homo sapiens, MDA-MB-231, 24 h, read-out: IC50-24): 140 ± 33.5 µM
IC50 ([3]; Homo sapiens, MDA-MB-231, 48 h, read-out: IC50-48): 63.2 ± 10.6 µM
concentration from which a significant cytotoxic effect is seen ([3]; MDA-MB-231, 48 h): ≥ 10 µM
reduction in cyclin D1 protein [4]: 40%
reduction in GSK3β [4]: 40%
viability at 24 h [5]: 94.3%
reduction in Ras-GTP levels [6]: over 80%
decrease in Ras-GTP levels [7]: over 60%
reduction of colony growth [2]: 48%

CN(CC(=O)NC1CCOc2ccccc21)Cc1cccc(Cl)c1 (stereo not shown) [C14, 2-[(3-chlorophenyl)-methyl-methyl-amino]-N-croman-4-yl-acetamide]
IC50 ([3]; MDA-MB-231, 24 h, read-out: IC50-24): 91.1 ± 3.9 µM
IC50 ([3]; MDA-MB-231, 48 h, read-out: IC50-48): 60 ± 6.6 µM
concentration from which a significant cytotoxic effect is seen ([3]; MDA-MB-231, 48 h): ≥ 10 µM
reduction in cyclin D1 protein [4]: 40%
reduction in GSK3β [4]: 10%
viability ([1]; 24 h at IC50-24, flow cytometry): 91.1%
reduction in Ras-GTP levels [6]: 20%
decrease in Ras-GTP levels [7]: approximately 20%
